In paper PMC10470178, “Long-acting lenacapavir protects macaques against intravenous challenge with simian-tropic HIV” (eBioMedicine, 2023):

Test system: stHIV-A19
Test: Multi-round replication assay of stHIV-A19 in primary human PBMCs (PERT readout)
Format: cell-based, simian-tropic HIV-1
Conditions: three donors, RT in supernatant at 7 days
Experimental: Infectious stocks of stHIV-A19,[23] HIV-1 NL4-3, and SIVmac239 were produced in HEK-293T (RRID: CVCL_1926) cells transfected with full-length viral genome plasmids using the TransIT HEK-293 transfection reagent (Mirus Bio) according to the manufacturer’s instructions. Virus stock infectious titres were determined on TZM-bl reporter cells (RRID: CVCL_B478) as previously described.[26] For experiments using SupT1-CCR5 target cells (RRID: CVCL_X633),[27] cultures were maintained in RPMI 1640 medium supplemented with 10% foetal bovine serum (FBS), 2 mM glutamine, 100 U/ml penicillin, and 100 μg/ml streptomycin. […] Cells were then washed three times to remove input virus, counted, and cultured in triplicate in growth media containing serial threefold dilutions of LEN or no LEN (control). […] Culture supernatants were collected 7 days post-inoculation, clarified by centrifugation, and stored at −80 °C for later quantification of vRNA by quantitative reverse transcription polymerase chain reaction (qRT-PCR). […] The stHIV-A19 stock was quantified with a SYBR Green-based qPCR-based product-enhanced RT (PERT) assay using a purified reverse transcriptase (RT) protein standard, as previously described.[28] […] After 7 days, the virus in culture supernatants was quantified using the PERT assay. […]

For CC(C)(C#Cc1ccc(-c2ccc(Cl)c3c(NS(C)(=O)=O)nn(CC(F)(F)F)c23)c([C@H](Cc2cc(F)cc(F)c2)NC(=O)Cn2nc(C(F)(F)F)c3c2C(F)(F)[C@@H]2C[C@H]32)n1)S(C)(=O)=O [LEN, Lenacapavir], the “mean EC95 against stHIV-A19 in human PBMC” value (calculated from EC50 with Hill coefficient 3.51) was 122 ± 31 pM and the “mean EC95 against stHIV-A19 in human PBMC” value (calculated from EC50 with Hill coefficient 3.51, listed as Lenacapavir) was 122 (±31 SD) pM.
